The results in this text go back to patent US20250026778A1 (TIUMBIO CO., LTD., priority 2021, published 2025).

Like-named read-outs stand apart in the source and are kept apart here.

In the test the target is T1, his-galectin-3 (Homo sapiens, UniProt P17931).
T1 construct: purchased Abcam
Put plainly: TR-FRET assay (in vitro galectin-3 binding inhibitory activity test). As to conditions: compound at 20 μM, 60 nM his-galectin-3, 15 nM biotin-ASF. A digest of the protocol: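 Compound is premixed with his-galectin-3 (60 nM final), then biotin-ASF (15 nM), Tb anti-His antibody (2 nM) and streptavidin-d2 (20 nM) are added. After at least 3.5 hours at RT in HEPES/NaCl buffer with Tween 20 and BSA, TR-FRET is read at 615/665 nm. DMSO serves as the uninhibited control, ASF omission as background.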

Where [1] appears, read: Table 1, read-out: % Inhibitory activity (at 20 μM).
Setting [2] is: Table 2, read-out: % Inhibitory activity (at 20 μM).
Where [3] appears, read: read-out: % Inhibitory activity (at 20 μM), Table 1.

T1 sequence (P17931 whole entry): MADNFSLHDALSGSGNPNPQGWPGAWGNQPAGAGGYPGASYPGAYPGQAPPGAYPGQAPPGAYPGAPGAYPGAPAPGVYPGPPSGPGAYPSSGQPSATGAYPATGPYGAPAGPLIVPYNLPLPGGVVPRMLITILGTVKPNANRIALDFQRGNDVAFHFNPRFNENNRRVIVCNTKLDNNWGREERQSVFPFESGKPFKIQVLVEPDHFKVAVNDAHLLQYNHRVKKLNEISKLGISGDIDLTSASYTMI

Turning to `O=C(Cc1ccc(-c2ccccc2)cc1)N[C@@H]1CCO[C@]12O[C@H](CO)[C@H](O)[C@H](n1cc(-c3cc(F)c(F)c(F)c3)nn1)[C@H]2O` [Compound A135, 2-([1,1′-biphenyl]-4-yl)-N-((4R,5S,7R,8R,9S,10R)-8,10-dihydroxy-7-(hydroxymethyl)-9-(4-(3,4,5-trifluorophenyl)-1H-1,2,3-triazol-1-yl)-1,6-dioxaspiro[4.5]decan-4-yl)acetamide], under setting [1], the inhibition at 20 µM is less than 25%.

Consider `O=C(N[C@@H]1CCO[C@]12O[C@H](CO)[C@H](O)[C@H](n1cc(-c3cc(F)c(F)c(F)c3)nn1)[C@H]2O)c1cc(Br)cc2ccccc12` [Compound A178, 3-bromo-N-((4R,5S,7R,8R,9S,10R)-8,10-dihydroxy-7-(hydroxymethyl)-9-(4-(3,4,5-trifluorophenyl)-1H-1,2,3-triazol-1-yl)-1,6-dioxaspiro[4.5]decan-4-yl)-1-naphthamide], for which the inhibition at 20 µM under setting [2] is greater than 75%.

In the case of `OC[C@H]1O[C@@]2(CCCO2)[C@H](OCc2ccccc2)[C@@H](n2cc(-c3cc(F)c(F)c(F)c3)nn2)[C@H]1O` [Compound A13, (5S,7R,8R,9S,10R)-10-(benzyloxy)-7-(hydroxymethyl)-9-(4-(3,4,5-trifluorophenyl)-1H-1,2,3-triazol-1-yl)-1,6-dioxaspiro[4.5]decan-8-ol], under setting [1], the inhibition at 20 µM fell in the range of 25 to 50%.

Consider `OC[C@H]1O[C@]2(OCC[C@H]2NCc2ccccc2)[C@H](O)[C@@H](n2cc(-c3cc(F)c(F)c(F)c3)nn2)[C@H]1O` [Compound A105, (4R,5S,7R,8R,9S,10R)-4-(benzylamino)-7-(hydroxymethyl)-9-(4-(3,4,5-trifluorophenyl)-1H-1,2,3-triazol-1-yl)-1,6-dioxaspiro[4.5]decane-8,10-diol], for which the inhibition at 20 µM under setting [3] is less than 25%.

As for `O=C(N[C@@H]1CCO[C@]12O[C@H](CO)[C@H](O)[C@H](n1cc(-c3cc(F)c(F)c(F)c3)nn1)[C@H]2O)c1cccc2ccncc12` [Compound A246, N-((4R,5S,7R,8R,9S,10R)-8,10-dihydroxy-7-(hydroxymethyl)-9-(4-(3,4,5-trifluorophenyl)-1H-1,2,3-triazol-1-yl)-1,6-dioxaspiro[4.5]decan-4-yl)isoquinoline-8-carboxamide], the inhibition at 20 µM under setting [2] was greater than 75%.

For the molecule `O=C(O[C@@H]1[C@@H](n2cc(-c3cc(F)c(F)c(F)c3)nn2)[C@@H](O)[C@@H](CO)O[C@@]12CCCCO2)c1cccnc1` [Compound A61, (2R,3R,4S,5R,6S)-3-hydroxy-2-(hydroxymethyl)-4-(4-(3,4,5-trifluorophenyl)-1H-1,2,3-triazol-1-yl)-1,7-dioxaspiro[5.5]undecan-5-yl nicotinate], the inhibition at 20 µM under setting [3] was 25 to 50%.

Consider `O=C(N[C@@H]1CCO[C@]12O[C@H](CO)[C@H](O)[C@H](n1cc(-c3cc(F)c(F)c(F)c3)nn1)[C@H]2O)C1CCCC1` [Compound A107, N-((4R,5S,7R,8R,9S,10R)-8,10-dihydroxy-7-(hydroxymethyl)-9-(4-(3,4,5-trifluorophenyl)-1H-1,2,3-triazol-1-yl)-1,6-dioxaspiro[4.5]decan-4-yl)cyclopentancarboxamide], for which the inhibition at 20 µM under setting [1] is 25 to 50%.

Regarding `O=C(CO[C@@H]1[C@@H](n2cc(-c3cc(F)c(F)c(F)c3)nn2)[C@@H](O)[C@@H](CO)O[C@@]12CCCO2)Nc1ccccc1` [Compound A23, 2-(((5S,7R,8R,9S,10R)-8-hydroxy-7-(hydroxymethyl)-9-(4-(3,4,5-trifluorophenyl)-1H-1,2,3-triazol-1-yl)-1,6-dioxaspiro[4.5]decan-10-yl)oxy)-N-phenylacetamide], the inhibition at 20 µM under setting [1] was in the range of 25 to 50%.

Regarding `O=C(OC1[C@@H](n2cc(-c3cc(F)c(F)c(F)c3)nn2)[C@@H](O)[C@@H](CO)O[C@@]12CCCO2)c1cccnc1` (stereo in doubt) [Compound A75, (5S,7R,8R,9S,10S)-8-hydroxy-7-(hydroxymethyl)-9-(4-(3,4,5-trifluorophenyl)-1H-1,2,3-triazol-1-yl)-1,6-dioxaspiro[4.5]decan-10-yl nicotinate], the inhibition at 20 µM was 25 to 50% under setting [3] and 32% (read-out: % Inhibitory activity (at 20 μM), Table 3, found values).
